Laboratory results from the METLIN SMRT retention time set (Domingo-Almenara et al. 2019).

Assay: gradient 5% acetonitrile 3 min, to 50% in 2 min, to 85% in 15 min, held 3 min, 100 µL/min
Details: column: Zorbax Extend-C18 2.1 x 50 mm; eluents: water / acetonitrile, 0.1% formic acid
Procedure, shortened: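 Mixtures of ~100 pure standards were chromatographed on a Zorbax Extend-C18 column (2.1 × 50 mm, 1.8 μm) at 100 μL/min using water and acetonitrile, each with 0.1% formic acid. Detection used a quadrupole time-of-flight mass spectrometer in positive and negative ionization mode, and data collection spanned 3 months. Retention time was obtained from adduct peaks picked computationally and each checked manually.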

Row | SMILES | RP-LC retention time
1 | CCC(=O)NC1Cc2ccccc2C(c2ccccc2)C1 (stereo unspecified) | 997 s
2 | Cc1nn(C)c(C)c1S(=O)(=O)N1CCC(OCCOCc2ccccc2)CC1 | 896 s
3 | CN1CCCc2cc(C(=O)NCc3ccccc3F)sc21 | 915 s
4 | COc1ccc(C2C(C(=O)N3CCCC3)c3cc(OC)c(OC)cc3C(=O)N2C)cc1OC (stereo unspecified) | 660 s
5 | O=C(NC1CC1)c1ccc(OCC2CCN(C(=O)c3ccc(C(F)(F)F)cc3)CC2)cc1 | 899 s
6 | CC(C)N1C(=O)c2cccnc2Sc2cc(NC(=O)C3(c4ccccc4)CC3)ccc21 | 1020 s
7 | N#CC(c1ccccc1)C(C/C(=N\O)c1ccccc1)c1ccccc1 (stereo unspecified) | 1090 s
8 | Cn1nnnc1SCC(=O)OCc1cc(-c2ccco2)on1 | 728 s
9 | CCOc1ccc(NC(=O)c2cn(-c3cc(N4CCCCC4C)ncn3)cn2)cc1 (stereo unspecified) | 1110 s
10 | O=C1CCc2cc(NC(=O)c3ccc(F)c(F)c3)ccc2N1 | 657 s
11 | Cc1ccc(C)c(NC(=O)C2CCCN2S(=O)(=O)c2cc3c(cc2C)NC(=O)C(C)O3)c1 (stereo unspecified) | 845 s
12 | CCOc1ccc(-c2noc(-c3nn(-c4ccc(F)cc4)c(=O)c4ccccc34)n2)cc1OC | 1240 s
13 | Cc1cc(C)c(C)c(S(=O)(=O)NCC(=O)NCc2ccco2)c1C | 573 s
14 | O=C(O)Cc1sc(Nc2ccc(F)c(F)c2F)nc1-c1ccccc1 | 977 s
15 | CCc1cccc(NS(=O)(=O)c2cc(-c3[nH]ncc3C(=O)N3CCCC3)oc2C)c1 | 760 s
16 | Cc1noc(-c2nn(C)c3c2CN(C(=O)NCc2ccc(F)cc2)CC3)n1 | 699 s
17 | Cc1ccc(-c2nc3c(C)cccn3c2Nc2ccccc2C)cc1 | 788 s
18 | O=C(C1CCN(c2cnc(N3CCCCC3)nc2)CC1)N1CCOCC1 | 599 s
19 | CC(C)(C)C(O)CCNC(=O)Nc1ccc2c(c1)OCO2 (stereo unspecified) | 690 s
20 | Cc1ccc(CNC(=O)C2(C)CN(S(C)(=O)=O)CC(=O)N2c2ccc(C(C)C)cc2)cc1 (stereo unspecified) | 935 s
21 | Cc1cc2cc(CNC(=O)C(=O)c3c[nH]c4ccccc34)ccc2[nH]1 | 878 s
22 | CCOC(=O)C1=C(C)N(CC(=O)N2CCCC2)c2ncnn2C1c1ccc(C)cc1 (stereo unspecified) | 824 s
23 | COc1ccc(CNC(=O)Cn2ccc3ccc(-c4nnc(C)o4)cc32)cc1 | 1080 s
24 | CN(C)[C@@H]1CN(C(=O)CCc2c[nH]c3ccccc23)C[C@H]1CO | 573 s

The remaining lines, values ahead:

Row | RP-LC retention time | SMILES
25 | 1130 s | CCOC(=O)c1c(C)oc2nc(C)nc(NC3CCCc4ccccc43)c12 (stereo unspecified)
26 | 1060 s | Cc1ccc(NC(=O)C2CCCN(S(=O)(=O)c3cc(-c4noc(C)n4)cs3)C2)c(Cl)c1 (stereo unspecified)
27 | 702 s | O=C(NCc1ccc(F)cc1)C(=O)NCC1OCCN1C(=O)c1cccs1 (stereo unspecified)
28 | 791 s | O=C(Nc1ccc(F)cc1)C1CCN(C(=O)c2ncn3c2COC(c2ccccc2)C3)CC1 (stereo unspecified)
29 | 843 s | Cc1oc(-c2ccc(C(=O)N3CCCCC3)cc2)nc1CS(=O)(=O)c1ccccc1
30 | 910 s | CN(C(=O)C1CCN(S(=O)(=O)c2ccc3c(c2)sc(=O)n3C)CC1)C1CCCCC1
31 | 766 s | CNC(=O)N1CCCC(c2cccc(C(=O)NCc3cc(OC)ccc3OC)c2)C1 (stereo unspecified)
32 | 735 s | O=C(NCc1cccnc1-c1ccc(F)cc1)c1ccc(Br)cc1
33 | 976 s | COc1ccc(Cn2c(=O)n(C(C)C)c(=O)c3oc4ccccc4c32)cc1
34 | 801 s | Cc1noc(-c2ccc(OC3CN(C(=O)NC4CCCC4)C3)cc2)n1
35 | 994 s | O=C(Cc1ccccc1)N1CCCC1c1nc(-c2ccccc2Cl)no1 (stereo unspecified)
36 | 668 s | Cn1cc(CCN2CCN(S(=O)(=O)c3ccc4c(c3)CCC4)CC2)c2cccnc21
